How the values were obtained:
[1] = test system: voltage-dependent calcium channels (iliac rings); assay: Relaxation responses to nifedipine of CaCl2-contracted iliac rings from cynomolgus monkeys; parameters: species or system cynomolgus (Macaca fascicularis) monkeys; settings: cholesterol-fed monkeys, with captopril
Source text: (§1) Twenty-four male cynomolgus (Macaca fascicularis) monkeys were divided into four groups of six animals each. During the course of the study, one of the control monkeys was sacrificed due to ill health unrelated to the study. Each group was fed a different diet for six months. The control group ate a normal diet of monkey biscuit. The cholesterol group ate a specially formulated monkey diet containing cholesterol. The cholesterol +low captopril group ate the cholesterol diet supplemented with captopril (50 mg/kg divided into two daily doses). The cholesterol+high captopril group ate the cholesterol diet and a higher total dose of captopril (100 mg/kg divided into two daily doses).
(§2) The monkeys were sedated with an intramuscular injection of ketamine (10 mg/kg), then anesthetized with pentobarbital (25 mg/kg). The iliac arteries were carefully dissected, cleaned of surrounding connective tissue, and refrigerated overnight for use the following day.
(§3) On the day of the experiment, three iliac rings (3 mm wide) from each animal were cut and mounted for isometric force recording. Each ring was attached to a micrometer for the control of muscle length and to a Grass FT.03 force transducer and Grass 7D recorder. The rings were placed in warm (37° C.), oxygenated, physiological salt solution (PSS) of the following composition (in mM): 140.0 NaCl, 4.7 KCl, 1.2 MgSO4, 1.6 CaCl2, 1.2 NaH2 PO4, 5.6 D-glucose, 2.0 2-(N-morpholino)propanesulfonic acid (MOPS, pH 7.4 at 37° C.), and 0.02 Na2 -ethylenediaminetetraacetic acid (EDTA). The rings were stretched to a preload of 5 g during a 2 hour equilibration period, then stimulated with 1 μM phenylephrine to test for viability and relaxed with 100 nM acetylcholine to test for endothelial function. Stock solutions of phenylphrine, acetylcholine, propranolol, and sodium nitroprusside were prepared daily in water; nifedipine stock solutions were prepared daily in ethanol.
(§4) The voltage-dependent calcium channels were studied in one ring from each monkey. The protocol consisted of depleting the cells of calcium by exposing the rings to a Ca-free, EGTA (ethylene glycol-bis(β-aminoethyl ether)N,N,N',N'-tetraacetic acid) PSS (omission of CaCl2 and addition of 0.1 mM EGTA) for 30 minutes. The EGTA was subsequently removed from the tissues with three washes of Ca-free PSS (simple omission of CaCl2). Following that, the rings were bathed in Ca-free, K^+ PSS (omission of CaCl2 and isoosmotic substitution of KCl for NaCl such that the KCl concentration was 110 mM) for 30 minutes. A CaCl2 concentration-response curve was obtained by replacing the bath solution with K^+ PSS containing incremental increases in CaCl2 concentration (0.1, 0.3, 0.5, 1.0, 1.25, 1.6, and 2.5 mM). The maximal contractions, in response to 2.5 mM CaCl2, were then relaxed incrementally with nifedipine. Another iliac ring (fade control) from each monkey was subjected to the same protocol with the exception that the strips were allowed to remain contracted and the nifedipine concentration-response curve was not obtained. Some fade of the CaCl2 -induced force was observed over the time period required for the nifedipine concentration-response curve. This fade was accounted for by decreasing the amount of relaxation observed upon addition of nifedipine by the amount of fade observed in the time control from the same monkey.
Data are presented as mean±SEM. The IC50 and EC50 values were estimated by linearly interpolating from the concentration-response curves. […]

[2] = test system: K^+ depolarized arteries (iliac rings); assay: Contractile responses to CaCl2 in K^+ depolarized iliac rings from cynomolgus monkeys; parameters: species or system cynomolgus (Macaca fascicularis) monkeys
Source text: as §1, §2, §3, §4
Data are presented as mean±SEM. The IC50 and EC50 values were estimated by linearly interpolating from the concentration-response curves. The EC50 values for each ring were used to determine the means for each treatment group.
Concentration-response curves to CaCl2 in K^+ depolarized rings were obtained following depletion of tissue calcium by repeated washing in Ca-free PSS first with, then without, EGTA. There were no differences in the responses to CaCl2 among any of the treatment groups (Table 1).

[3] = test system: isolated rat hearts; settings: van Gilst et al; cited from earlier work

C[C@H](CS)C(=O)N1CCC[C@H]1C(=O)O [captopril, 1-[(2S)-3-mercapto-2-methylpropionyl]-L-proline]
effect on in vitro response of iliac arteries to nifedipine [1]: neither cholesterol nor captopril affected
Max Force (CaCl2) ([2]; Cholesterol + High Captopril (100 mg/kg daily, six months), Mean ± SEM): 16.8 ± 1.1 g
Max Force (CaCl2) ([2]; Cholesterol + Low Captopril (50 mg/kg daily, six months), Mean ± SEM): 16.5 ± 1.8 g
EC50 at 100 mg/kg ([2]; Macaca fascicularis, Cholesterol + High Captopril (100 mg/kg daily, six months), Mean ± SEM): 150 ± 30 µM
EC50 at 50 mg/kg ([2]; Macaca fascicularis, Cholesterol + Low Captopril (50 mg/kg daily, six months), Mean ± SEM): 140 ± 40 µM
effect on in vitro response of iliac arteries to CaCl2 ([2]; cholesterol-fed monkeys, with captopril): neither cholesterol nor captopril affected
coronary vasodilatory mechanism [3]: potentiates the effect of locally increased BK
